Measured values from the NIST ThermoML archive (doi:10.1021/je050116g).

Key:
[1] = xn = mol fraction of the nth substance listed; settings: 298.15 K, 101.33 kPa, Liquid
[2] = relative permittivity at various frequencies (dimensionless); xn = mol fraction of the nth substance listed; settings: 298.15 K, 101.33 kPa, Liquid, Frequency=0.03 MHz, Parallel plate capacitor
[3] = 298.15 K; 101.33 kPa; Liquid

CCCCCCCO [heptan-1-ol] + CCCCCCCCCCCC
Settings	mass density [kg/m3]	relative permittivity
[1], x1 = 0.00183	745.491	–
[1], x1 = 0.00384	745.55	–
[1], x1 = 0.00719	745.657	–
[1], x1 = 0.01509	745.934	–
[1], x1 = 0.02602	746.357	–
[1], x1 = 0.03537	746.74	–
[1], x1 = 0.04943	747.341	–
[1], x1 = 0.06486	748.019	–
[1], x1 = 0.08181	748.778	–
[1], x1 = 0.1023	749.709	–
[2], x1 = 0.000586	–	2.00786
[2], x1 = 0.001199	–	2.00865
[2], x1 = 0.001873	–	2.00953
[2], x1 = 0.002621	–	2.01049
[2], x1 = 0.003507	–	2.01164
[2], x1 = 0.004712	–	2.01319
[2], x1 = 0.006033	–	2.01489
[2], x1 = 0.007493	–	2.0167
[2], x1 = 0.009131	–	2.01867
[2], x1 = 0.01103	–	2.02082
[2], x1 = 0.01345	–	2.02338
[2], x1 = 0.01639	–	2.02628
[2], x1 = 0.02108	–	2.03055
[2], x1 = 0.02571	–	2.03449
[2], x1 = 0.03171	–	2.03943
[2], x1 = 0.0379	–	2.0444
[2], x1 = 0.04415	–	2.0494
[2], x1 = 0.0517	–	2.05543
[2], x1 = 0.06004	–	2.06219
[2], x1 = 0.07079	–	2.07111
[2], x1 = 0.08135	–	2.08016
[2], x1 = 0.09339	–	2.09089
[2], x1 = 0.1085	–	2.10505

CCCCCCCCCCCC [dodecane] + CCO
Settings	mass density [kg/m3]	relative permittivity
[1], x2 = 0.00284	745.404	–
[1], x2 = 0.0035	745.397	–
[1], x2 = 0.00482	745.386	–
[1], x2 = 0.0076	745.363	–
[1], x2 = 0.01169	745.338	–
[1], x2 = 0.01342	745.329	–
[1], x2 = 0.0189	745.313	–
[1], x2 = 0.02678	745.305	–
[1], x2 = 0.04127	745.348	–
[1], x2 = 0.06055	745.432	–
[1], x2 = 0.08084	745.514	–
[1], x2 = 0.09645	745.601	–
[2], x2 = 0.000779	–	2.00812
[2], x2 = 0.001608	–	2.00915
[2], x2 = 0.002571	–	2.01035
[2], x2 = 0.003578	–	2.0116
[2], x2 = 0.004642	–	2.01293
[2], x2 = 0.005982	–	2.01453
[2], x2 = 0.007701	–	2.01653
[2], x2 = 0.009387	–	2.0184
[2], x2 = 0.01111	–	2.02022
[2], x2 = 0.01308	–	2.02209
[2], x2 = 0.01589	–	2.02461
[2], x2 = 0.02008	–	2.02815
[2], x2 = 0.02502	–	2.03214
[2], x2 = 0.03098	–	2.03689
[2], x2 = 0.03829	–	2.04274
[2], x2 = 0.04601	–	2.04907
[2], x2 = 0.055	–	2.05682
[2], x2 = 0.06553	–	2.06649
[2], x2 = 0.07632	–	2.07716
[2], x2 = 0.08814	–	2.08986
[2], x2 = 0.1017	–	2.10596

CCCCO [butan-1-ol]
Settings	mass density [kg/m3]
[3]	805.767
